Measured values published in the RepoRT retention time repository (doi:10.1093/pcp/pcn183).
Structures can show the parent of a compound that is named as a salt.

Assay: RP, Waters ACQUITY UPLC BEH C18, 38 °C, 0.24 mL/min; A: water + 0.1% formic acid, pH 3; B: acetonitrile + 0.1% formic acid, pH 3; gradient (min/%B) 0/0 0.25/0 0.4/9 0.8/17 1.9/100 2.1/100 2.11/0 3/0
Settings: stereoisomer not certain

Compound: O=C(C=Cc1ccc(O)cc1)OCC1OC(Oc2c(-c3ccc(O)cc3)oc3cc(O)cc(O)c3c2=O)C(O)C(O)C1O (stereo not drawn) [Tiliroside]
- LC retention time: 1.57 min

Compound: CCCCCCCCCCCCCCCC(O)C(CO)NC(=O)CCCCCCC [N-Octanoylsphinganine,D-erythro]
- LC retention time: 0.56 min

Compound: O=C(O)C=Cc1ccccc1O [2-Hydroxycinnamic acid, predominantly trans]
- LC retention time: 1.51 min

Compound: C[N+](C)(C)C[C@H](O)CC(=O)[O-] [L-Carnitine hydrochloride]
- LC retention time: 0.18 min

Compound: NC(=O)NC(CC(=O)O)C(=O)O (racemic) [Carbamoyl-DL-aspartic Acid]
- LC retention time: 0.12 min

Compound: O=C(O)C1=CCNCC1 [Isoguvacine hydrochloride]
- LC retention time: 0.18 min

Compound: CC(C)CC(N)C(=O)O [L-Leucine, (Cell Culture Reagent, Crystalline)]
- LC retention time: 0.53 min

Compound: COc1cc2c(cc1O)C1Cc3ccc(OC)c(O)c3CN1CC2 (stereo not drawn) [Scoulerin]
- LC retention time: 1.37 min

Compound: O=c1[nH]cnc2c1ncn2C1CC(O)C(COP(=O)(O)O)O1 (stereo not drawn) [2'-Deoxyinosine-5'-monophosphate sodium salt]
- LC retention time: 0.7 min

Compound: CCC[C@H](N)C(=O)O [L-Norvaline]
- LC retention time: 0.25 min

Compound: CC(O)(CC(=O)O)C(=O)O (single isomer, unassigned; (-)) [(-)-Citramalic acid]
- LC retention time: 0.51 min

Compound: NCCc1cnc[nH]1 [Histamine]
- LC retention time: 0.14 min

Compound: O=Cc1c[nH]c2ccccc12 [Indole-3-carboxyaldehyde]
- LC retention time: 1.51 min

Compound: OCC1OC(Oc2cc(O)cc(C=Cc3ccc(O)c(O)c3)c2)C(O)C(O)C1O (stereo not drawn) [E-3,4,5'-trihydroxy-3'-glucopyranosylstilbene]
- LC retention time: 1.33 min

Compound: O=C(O)CC(C(=O)O)C(O)C(=O)O (racemic) [DL-Isocitric acid trisodium salt]
- LC retention time: 0.24 min

Compound: Nc1ncnc2nc[nH]c12 [Adenine]
- LC retention time: 0.32 min

Compound: CC(C)[N+](=O)[O-] [2-nitropropane]
- LC retention time: 0.3 min

Compound: NC12CC3CC(CC(C3)C1)C2 [Amantadine hydrochloride]
- LC retention time: 1.28 min

Compound: O=C(O)CC(O)C(=O)O [L-(-)-Malic acid]
- LC retention time: 0.23 min

Compound: OCC1OC(Oc2cc3c(OC4OC(CO)C(O)C(O)C4O)cc(O)cc3[o+]c2-c2ccc(O)cc2)C(O)C(O)C1O (stereo not drawn) [Pelargonin chloride]
- LC retention time: 1.14 min

Compound: COc1cc(-c2[o+]c3cc(O)cc(O)c3cc2OC2OCC(O)C(O)C2O)ccc1O (stereo not drawn) [Peonidin-3-O-alpha-arabinopyranoside]
- LC retention time: 1.3 min

Compound: COc1cc(-c2oc3cc(O)cc(O)c3c(=O)c2O)ccc1O [Isorhamnetin]
- LC retention time: 1.7 min

Compound: Oc1cccnc1 [3-Hydroxypyridine]
- LC retention time: 0.24 min

Compound: O=C(O)C=C(CC(=O)O)C(=O)O [trans-Aconitic acid]
- LC retention time: 0.63 min

Compound: C[N+](C)(C)[O-] [Trimethylamine N-oxide dihydrate]
- LC retention time: 0.18 min

Compound: N[C@@H](CO)C(=O)O [L-Serine]
- LC retention time: 0.16 min

Compound: CC(=O)NC(CC(=O)O)C(=O)O (racemic) [N-Acetyl-DL-aspartic acid]
- LC retention time: 0.31 min

Compound: OCC1OC(OC2(CO)OC(CO)C(O)C2O)C(O)C(O)C1O (stereo not drawn) [Sucrose]
- LC retention time: 0.22 min

Compound: C=C(CC(=O)O)C(=O)O [Itaconic acid]
- LC retention time: 1.09 min

Compound: Nc1ccccc1C(=O)CC(N)C(=O)O [L-Kynurenine]
- LC retention time: 1.1 min

Compound: NCCCCCN [Cadaverine]
- LC retention time: 0.14 min

Compound: N[C@H](CO)Cc1cnc[nH]1 [L-Histidinol dihydrochloride]
- LC retention time: 0.14 min

Compound: COc1cc(-c2oc3cc(O)cc(O)c3c(=O)c2OC2OC(CO)C(O)C(O)C2O)ccc1O (stereo not drawn) [isorhamnetin-3-O-glucoside]
- LC retention time: 1.45 min

Compound: O=c1ccn(C2OC(CO)C(O)C2O)c(=O)[nH]1 (stereo not drawn) [Uridine]
- LC retention time: 0.66 min

Compound: CC(=O)NC(CO)C(=O)O (racemic) [N-acetyl-DL-serine]
- LC retention time: 0.24 min

Compound: NCCC(=O)O [beta-Alanine]
- LC retention time: 0.16 min

Compound: OCC1OC(Oc2cc3c(O)cc(O)cc3[o+]c2-c2ccc(O)cc2)C(O)C(O)C1O (stereo not drawn) [Callistephin Chloride]
- LC retention time: 1.25 min

Compound: COc1ccc(C=CC(=O)O)cc1 [4-Methoxycinnamic acid]
- LC retention time: 1.65 min

Compound: CC1CCC2(NC1)OC1CC3C4CC=C5CC(O)CCC5(C)C4CCC3(C)C1C2C (stereo not drawn) [Solasodine]
- LC retention time: 1.72 min

Compound: NC(=O)c1ncn(C2OC(COP(=O)(O)O)C(O)C2O)c1N (stereo not drawn)
- LC retention time: 0.32 min

Compound: N[C@@H](CCSSCC[C@H](N)C(=O)O)C(=O)O (racemic) [DL-homocystine]
- LC retention time: 0.23 min

Compound: O=c1cccc[nH]1 [2-Hydroxypyridine]
- LC retention time: 0.68 min

Compound: CS(=O)CCCCN=C=S (racemic) [D,L-sulforaphane]
- LC retention time: 1.44 min

Compound: COc1cc(-c2[o+]c3cc(O)cc(O)c3cc2OC2OC(CO)C(O)C(O)C2O)cc(OC)c1O (stereo not drawn) [Oenin]
- LC retention time: 1.29 min

Compound: CC(C)c1cccc(O)c(=O)c1 [Hinokitiol]
- LC retention time: 1.49 min

Compound: CC[C@H](N)C(=O)O [L-2-Aminobutyric acid]
- LC retention time: 0.18 min

Compound: O=S(=O)(O)CCN1CCN(CCS(=O)(=O)O)CC1 [PIPES]
- LC retention time: 0.16 min

Compound: CC(C)[C@@H](O)C(=O)O [D-alpha-Hydroxyisovaleric acid]
- LC retention time: 1.14 min

Compound: COc1cc(-c2oc3cc(O)cc(O)c3c(=O)c2OC2OC(CO)C(O)C(O)C2O)cc(OC)c1O (stereo not drawn) [syringetin-3-O-glucoside]
- LC retention time: 1.45 min

Compound: Nc1nc2c(ncn2C2OC(CO)C(O)C2O)c(=O)[nH]1 (stereo not drawn) [Guanosine]
- LC retention time: 1.08 min

Compound: OC[C@@H](O)[C@H](O)CO (racemic) [DL-Threitol]
- LC retention time: 0.17 min

Compound: Nc1ccn(C2CC(O)C(CO)O2)c(=O)n1 (stereo not drawn) [2'-Deoxycytidine]
- LC retention time: 0.45 min

Compound: O=c1ccn(C2OC(COP(=O)(O)OP(=O)(O)OC3OCC(O)C(O)C3O)C(O)C2O)c(=O)[nH]1 (stereo not drawn) [UDP-xylose]
- LC retention time: 0.21 min

Compound: NCCCC(=O)O [gamma-Amino-n-butyric acid]
- LC retention time: 0.17 min

Compound: COc1cc(-c2[o+]c3cc(O)cc(O)c3cc2O)cc(OC)c1O [Malvidin Chloride]
- LC retention time: 2.15 min

Compound: CCC(C(=O)O)C(=O)O [Ethylmalonic acid]
- LC retention time: 1.12 min

Compound: C[S+](CCC(N)C(=O)[O-])CC1OC(n2cnc3c(N)ncnc32)C(O)C1O [S-(5'-Adenosyl)-L-methionine chloride]
- LC retention time: 0.19 min

Compound: O=c1c(OC2OCC(O)C(O)C2O)c(-c2ccc(O)c(O)c2)oc2cc(O)cc(O)c12 [Quercetin-3-D-xyloside]
- LC retention time: 1.43 min

Compound: CSCC[C@H](N)CC(=O)O [L-beta-homomethionine-HCl]
- LC retention time: 0.66 min

Compound: CC(C)CC(O)C(=O)O (stereo not drawn) [2-Hydroxyisocaproic acid]
- LC retention time: 1.34 min

Compound: O=C1CC(c2ccc(O)c(O)c2)Oc2cc(OC3OC(CO)C(O)C(O)C3O)cc(O)c21 (stereo not drawn) [eriodictyol-7-O-glucoside]
- LC retention time: 1.41 min

Compound: CN(C)C(=N)N=C(N)N [1,1-Dimethylbiguanide hydrochloride]
- LC retention time: 0.21 min

Compound: O=c1[nH]c(=O)c2cn[nH]c2[nH]1 [Oxypurinol]
- LC retention time: 0.7 min
